From the NIST ThermoML archive (doi:10.1016/j.tca.2016.06.014)
“And” between values parts separate entries of the source, which are not always exact repeats. Identical values can stand only once.

Key:
[1] = for vapor or sublimation pressure: Transpiration method; for Normal melting temperature: DTA; for Triple point temperature: DSC
[2] = Molar enthalpy of transition or fusion; conditions: DSC

BrC1C2CC3CC(C2)CC1C3 (stereo unspecified) [2-bromoadamantane]
[1], Crystal
Conditions | vapor or sublimation pressure [kPa]
298.5 K | 0.00329
300.9 K | 0.0039
303.4 K | 0.00475
308.4 K | 0.00703
313.3 K | 0.01089
318.2 K | 0.01506
323.2 K | 0.02279
328.2 K | 0.03107
333.2 K | 0.04422
338.2 K | 0.06437
340.1 K | 0.07403
343.1 K | 0.08635

Crystal
Conditions | Molar enthalpy of transition or fusion [kcal/mol] | Normal melting temperature [°C]
[1] | – | 141.6
[2] | 1 | –

BrC1CCCCC1 [bromocyclohexane]
[1], Liquid
Conditions | vapor or sublimation pressure [kPa]
277.5 K | 0.105
280 K | 0.1251
281.7 K | 0.1422
283.6 K | 0.1639
285.5 K | 0.1872
287.4 K | 0.21
288.8 K | 0.2298
289.3 K | 0.2446
291.3 K | 0.2704
293.2 K | 0.3182
295.3 K | 0.3668
297.3 K | 0.4161

BrC12CC3CC(CC(C3)C1)C2 [1-bromotricyclo[3.3.1.1(3,7)]decane]
vapor or sublimation pressure [kPa], [1]
Conditions | 298.2 K | 303.2 K | 313.2 K | 317.3 K | 320.2 K | 323.2 K | 325.7 K | 328.2 K | 333.1 K | 337.1 K
Crystal 1 | – | – | 0.0166 | 0.02262 | 0.02932 | 0.03504 | 0.04244 | 0.04954 | 0.06913 | 0.08922
Crystal 2 | 0.00419 | 0.00677 | – | – | – | – | – | – | – | –

Conditions | Molar enthalpy of transition or fusion, [2] [kcal/mol] | Triple point temperature, [1] [K]
Crystal 1 | 1.15 | 390.9
Crystal 2 | 1.77 | 311.6

ClC12CC3CC(CC(C3)C1)C2 [1-chlorotricyclo[3.3.1.1(3,7)]decane]
[1], Crystal
Conditions | vapor or sublimation pressure
298.5 K | 0.01172 kPa
301 K | 0.01402 kPa
303.2 K | 0.01766 kPa
303.4 K | 0.01712 kPa
306.3 K | 0.02255 kPa
308.3 K | 0.02567 kPa
308.4 K | 0.02653 kPa
311.4 K | 0.03389 kPa
313.3 K | 0.0365 kPa
316.2 K | 0.04719 kPa
318.2 K | 0.05137 kPa and 0.05598 kPa
323.2 K | 0.07923 kPa
323.3 K | 0.0762 kPa
326.2 K | 0.09623 kPa
328.2 K | 0.1033 kPa and 0.11 kPa
330.7 K | 0.1198 kPa
333.2 K | 0.1492 kPa
333.4 K | 0.1437 kPa

Crystal
Conditions | Molar enthalpy of transition or fusion [kcal/mol] | Normal melting temperature [°C]
[1] | – | 165.8
[2] | 1.24 | –

ClC1C2CC3CC(C2)CC1C3 (stereo unspecified) [2-chlorotricyclo[3.3.1.1(3,7)]decane]
[1], Crystal
Conditions | vapor or sublimation pressure
298.6 K | 0.00623 kPa
301.6 K | 0.0076 kPa
303.5 K | 0.00901 kPa
308.4 K | 0.01307 kPa
310.3 K | 0.01568 kPa
313.3 K | 0.0191 kPa
313.5 K | 0.01927 kPa and 0.01999 kPa and 0.01925 kPa
315.3 K | 0.0223 kPa
318.2 K | 0.02668 kPa
323.5 K | 0.03885 kPa
328.2 K | 0.05574 kPa
333.2 K | 0.07877 kPa
335.7 K | 0.08972 kPa
338.2 K | 0.106 kPa

Crystal
Conditions | Molar enthalpy of transition or fusion [kcal/mol] | Normal melting temperature [°C]
[1] | – | 195.0
[2] | 1.51 | –
